Converted amounts (≈) assume the structure as drawn.
Columns and labels:
[1] = test system: Bordetella bronchiaseptica OKM-1; test: in vitro antimicrobial activity (MIC), agar dilution, Part 2; assay type: cell-based; conditions: Bordetella, OKM1, Bordetella bronchiaseptica OKM-1, Pig; read-out: MIC
Protocol: (§1) Test microorganisms listed in Table 2 were cultured overnight in heart infusion nutrient broth (produced by Eiken Chemical Co., Ltd.). Culture broth containing about 10⁸/ml cells was diluted to a volume of 100 times. An aliquot (about 0.05 ml) of the diluted broth was inoculated onto a Mueller Hinton agar plate (produced by Eiken Chemical Co., Ltd.) to which Compound No. 1 was added in a prescribed concentration. […]
(§2) MIC of Compounds (1)-(8) against various pathogenic bacteria derived from animals was determined in the same manner as in Example 1.

Escherichia coli 139 = test: as above; assay type: cell-based; conditions: Escherichia coli 139, Cow; read-out: MIC
Protocol: as §1, §2

Escherichia coli 881 = test: as above; assay type: cell-based; conditions: Escherichia coli, 881, Escherichia coli 881, Pig; read-out: MIC
Protocol: as §1, §2

Escherichia coli S6W = test: as above; assay type: cell-based; conditions: Escherichia coli, S6W, Escherichia coli S6W, Chicken; read-out: MIC
Protocol: as §1, §2

[2] = test system: Pasteurella multocida DB-12-1; test: as above; assay type: cell-based; conditions: DB121; Pasteurella multocida DB-12-1, Pig; read-out: MIC
Protocol: as §1, §2

[3] = test system: Salmonella typhimurium 103; test: as above; assay type: cell-based; conditions: Salmonella enterica; Salmonella typhimurium 103, Chicken; read-out: MIC
Protocol: as §1, §2

[4] = test system: Salmonella typhimurium 569; test: as above; assay type: cell-based; conditions: Salmonella enterica, TYPHIMURIUM, Salmonella typhimurium 569, Pig; read-out: MIC
Protocol: as §1, §2

[5] = test system: Staphylococcus aureus Yamaguchi 6; test: as above; assay type: cell-based; conditions: Staphylococcus aureus Yamaguchi 6, Chicken; read-out: MIC
Protocol: as §1, §2

[6] = test system: Mycoplasma gallisepticum Strain 2004; test: in vitro antimicrobial activity (MIC) in Frey liquid medium; assay type: cell-based; conditions: Mycoplasmoides gallisepticum, STRAIN2004; Mycoplasma gallisepticum Strain 2004, from chicken; Frey liquid medium, 37°C, 3-5 days; read-out: MIC
Protocol: (§3) Various test strains of Mycoplasma gallisepticum derived from chicken were cultured in a Frey liquid medium for Mycoplasma for 3 days. The culture broth containing about 10⁸/ml cells was diluted to a volume of 100 times. The diluted broth was inoculated into Frey liquid media for Mycoplasma to which the compounds of this invention were added at prescribed concentrations. The cells were incubated at 37°C for 3-5 days while daily observing the color of the media. Among the culture broths maintaining yellow color at the time when the control to which no test compound was added turned red, the concentration of the broth having the minimum concentration was taken as the MIC of the compound.

[7] = test system: Mycoplasma gallisepticum Strain 2012; test: as above; assay type: cell-based; conditions: Mycoplasmoides gallisepticum, STRAIN2012; Mycoplasma gallisepticum Strain 2012, from chicken; Frey liquid medium, 37°C, 3-5 days; read-out: MIC
Protocol: as §3

[8] = test system: Mycoplasma gallisepticum Strain DP-1047; test: as above; assay type: cell-based; conditions: Mycoplasmoides gallisepticum; Mycoplasma gallisepticum Strain DP-1047, from chicken; Frey liquid medium, 37°C, 3-5 days; read-out: MIC
Protocol: as §3

[9] = test system: Mycoplasma gallisepticum Strain T-2; test: as above; assay type: cell-based; conditions: Mycoplasmoides gallisepticum; Mycoplasma gallisepticum Strain T-2, from chicken; Frey liquid medium, 37°C, 3-5 days; read-out: MIC
Protocol: as §3

[10] = test system: Mycoplasma gallisepticum Strain T-7; test: as above; assay type: cell-based; conditions: Mycoplasmoides gallisepticum, Mycoplasma gallisepticum Strain T-7, from chicken, 37°C, 3-5 days
Protocol: as §3

Mycoplasma gallisepticum = test: Effect of oral administration on chicken inoculated with Mycoplasma gallisepticum; assay type: in vivo; conditions: for Chickens developing disease in air sac (naked eye observation) / No. of dead chickens: 5 tested chickens
Protocol: Mycoplasma gallisepticum cells collected from chickens having respiratory Mycoplasma infection were cultured for 3 days in a Frey liquid media for Mycoplasma. 0.2 ml of this culture broth was injected into the trachea of chickens of an average body weight of 80 g using a 1 ml disposable injection needle. Beginning from the next day following the inoculation, feeds to which Compound (1) had been added in the amount of 100 ppm, 75 ppm, or 50 ppm were freely given to the chickens for 5 days. Following the administration of Compound (1) the chickens were given feed containing no drug for a further 5 days. The surviving chickens were sacrificed and dissected. After examination of the degree of disease in the air sac, Mycoplasma gallisepticum in the infraorbital sinus, trachea, lung, and air sac were determined. […] TABLE 6 […]

[11] = Acute toxicity test, intravenous injection; assay type: in vivo
Protocol: Representative test compounds, Compounds (2) and (3), were intravenously injected to mice. No fatality occurred at a dose of 200 mg/kg (10 mice/group), for Compound (2), and a dose of 200 mg/kg (6 mice/group), for Compound (3). From the results, the LD₅₀ values of the compounds are considered to be greater than 200 mg/kg.

[12] = test system: Bordetella bronchiaseptica AR3; test: in vitro antimicrobial activity (MIC), agar dilution, Part 1; assay type: cell-based; conditions: Bordetella bronchiaseptica AR3, Pig; Mueller Hinton agar, 37°C, 18-24 hours
Protocol: as §1

Escherichia coli 15-4 = test: as above; assay type: cell-based; conditions: 154; Escherichia coli 15-4, Cow; Mueller Hinton agar, 37°C, 18-24 hours
Protocol: as §1

Escherichia coli 164 = test: as above; assay type: cell-based; conditions: Escherichia coli 164, Pig; Mueller Hinton agar, 37°C, 18-24 hours
Protocol: as §1

Escherichia coli 442 = test: as above; assay type: cell-based; conditions: Escherichia coli 442, Chicken; Mueller Hinton agar, 37°C, 18-24 hours
Protocol: as §1

[13] = test system: Salmonella typhimurium 101; test: as above; assay type: cell-based; conditions: Salmonella enterica; Salmonella typhimurium 101, Chicken; Mueller Hinton agar, 37°C, 18-24 hours
Protocol: as §1

[14] = test system: Salmonella typhimurium 595; test: as above; assay type: cell-based; conditions: Salmonella enterica; Salmonella typhimurium 595, Pig; Mueller Hinton agar, 37°C, 18-24 hours
Protocol: as §1

[15] = test system: Staphylococcus aureus Aichi 2; test: as above; assay type: cell-based; conditions: AICHI2; Staphylococcus aureus Aichi 2, Chicken; Mueller Hinton agar, 37°C, 18-24 hours
Protocol: as §1

Escherichia coli = test: Effect of oral administration on chicken inoculated with Escherichia coli; assay type: in vivo; conditions: for Chickens developing disease in air sac (naked eye observation) / No. of dead chickens: 5 tested chickens
Protocol: Escherichia coli cells collected from infected chicken were cultured overnight in a trypticase soy broth (BBL). 0.2 ml of this culture broth was injected into the trachea of chickens of average body weight of 80 g using a 1 ml disposable injection needle. Beginning 2 hours after the inoculation, feeds to which Compound (1) had been added in the amount of 50 ppm, 25 ppm, or 12.5 ppm were freely given to the chickens for 5 days. Following the administration of Compound (1) the chickens were given feed with no addition of drug for 5 days. The surviving chickens were sacrificed and dissected. After examination of the degree of disease in the air sac, Escherichia coli in the trachea, lung, and air sac were quantitatively determined. […]

CCCN1CCN(c2c(F)cc3c(=O)c(C(=O)O)cn4c3c2OCC4C)CC1 (racemic) [Compound (3), 3(RS)-9-fluoro-2,3-dihydro-3-methyl-10-(4-n-propyl-1-piperazinyl)-7-oxo-7H-pyrido[1,2,3-de] [1,4]benzoxazine-6-carboxylic acid]
MIC [1]: 0.78 µg/mL (≈ 2 µM) | MIC (Escherichia coli 139): 0.39 µg/mL (≈ 1 µM) | MIC (Escherichia coli 881): 0.2 µg/mL (≈ 0.514 µM) | MIC (Escherichia coli S6W): 0.39 µg/mL (≈ 1 µM) | MIC [2]: 0.1 µg/mL (≈ 0.257 µM) | MIC [3]: 0.78 µg/mL (≈ 2 µM) | MIC [4]: 0.39 µg/mL (≈ 1 µM) | MIC [5]: 0.78 µg/mL (≈ 2 µM) | MIC [6]: 0.025 µg/mL (≈ 0.0642 µM) | MIC [7]: 0.05 µg/mL (≈ 0.128 µM) | MIC [8]: 0.2 µg/mL (≈ 0.514 µM) | MIC [9]: 0.2 µg/mL (≈ 0.514 µM) | MIC [10]: 0.39 µg/mL (≈ 1 µM) | Mycoplasma gallisepticum collected in Air sac (Mycoplasma gallisepticum; 50 ppm in feed for 5 days): 3.24 Logarithmic number of collected cells per 1 g of tissue | Mycoplasma gallisepticum collected in Infraorbital sinus (Mycoplasma gallisepticum; 50 ppm in feed for 5 days): 0/5 | Mycoplasma gallisepticum collected in Lung (Mycoplasma gallisepticum; 50 ppm in feed for 5 days): 2.38 Logarithmic number of collected cells per 1 g of tissue | Mycoplasma gallisepticum collected in Trachea (Mycoplasma gallisepticum; 50 ppm in feed for 5 days): 0 Logarithmic number of collected cells per 1 g of tissue | Chickens developing disease in air sac (naked eye observation) (Mycoplasma gallisepticum; 50 ppm in feed for 5 days): 0 | No. of dead chickens (Mycoplasma gallisepticum; 50 ppm in feed for 5 days): 0 | Mycoplasma gallisepticum collected in Air sac (Mycoplasma gallisepticum; 75 ppm in feed for 5 days): 0 Logarithmic number of collected cells per 1 g of tissue | Mycoplasma gallisepticum collected in Infraorbital sinus (Mycoplasma gallisepticum; 75 ppm in feed for 5 days): 0/5 | Mycoplasma gallisepticum collected in Lung (Mycoplasma gallisepticum; 75 ppm in feed for 5 days): 0 Logarithmic number of collected cells per 1 g of tissue | Mycoplasma gallisepticum collected in Trachea (Mycoplasma gallisepticum; 75 ppm in feed for 5 days): 0 Logarithmic number of collected cells per 1 g of tissue | Chickens developing disease in air sac (naked eye observation) (Mycoplasma gallisepticum; 75 ppm in feed for 5 days): 0 | No. of dead chickens (Mycoplasma gallisepticum; 75 ppm in feed for 5 days): 0 | Mycoplasma gallisepticum collected in Air sac (Mycoplasma gallisepticum; 100 ppm in feed for 5 days): 0 Logarithmic number of collected cells per 1 g of tissue | Mycoplasma gallisepticum collected in Infraorbital sinus (Mycoplasma gallisepticum; 100 ppm in feed for 5 days): 0/5 | Mycoplasma gallisepticum collected in Lung (Mycoplasma gallisepticum; 100 ppm in feed for 5 days): 0 Logarithmic number of collected cells per 1 g of tissue | Mycoplasma gallisepticum collected in Trachea (Mycoplasma gallisepticum; 100 ppm in feed for 5 days): 0 Logarithmic number of collected cells per 1 g of tissue | Chickens developing disease in air sac (naked eye observation) (Mycoplasma gallisepticum; 100 ppm in feed for 5 days): 0 | No. of dead chickens (Mycoplasma gallisepticum; 100 ppm in feed for 5 days): 0 | fatality ([11]; mice, intravenously injected, dose of 200 mg/kg): No fatality | LD50 ([11]; mouse, in vivo, iv): > 200 mg/kg

CC1COc2c(N3CCN(C)CC3)c(F)cc3c(=O)c(C(=O)O)cn1c23 (racemic) [Ofloxacin, reference compound]
MIC [12]: 0.39 µg/mL (≈ 1.08 µM) | MIC (Escherichia coli 15-4): 0.1 µg/mL (≈ 0.277 µM) | MIC (Escherichia coli 164): 0.1 µg/mL (≈ 0.277 µM) | MIC (Escherichia coli 442): 0.05 µg/mL (≈ 0.138 µM) | MIC [13]: 0.05 µg/mL (≈ 0.138 µM) | MIC [14]: 0.1 µg/mL (≈ 0.277 µM) | MIC [15]: 0.2 µg/mL (≈ 0.553 µM) | Escherichia coli collected in Air sac (Escherichia coli; 12.5 ppm in feed for 5 days): 4.20 Logarithmic number of collected cells per 1 g of tissue | Escherichia coli collected in Lung (Escherichia coli; 12.5 ppm in feed for 5 days): 5.26 Logarithmic number of collected cells per 1 g of tissue | Escherichia coli collected in Trachea (Escherichia coli; 12.5 ppm in feed for 5 days): 7.48 Logarithmic number of collected cells per 1 g of tissue | Chickens developing disease in air sac (naked eye observation) (Escherichia coli; 12.5 ppm in feed for 5 days): 3 | No. of dead chickens (Escherichia coli; 12.5 ppm in feed for 5 days): 2 | Escherichia coli collected in Air sac (Escherichia coli; 25 ppm in feed for 5 days): 3.90 Logarithmic number of collected cells per 1 g of tissue | Escherichia coli collected in Lung (Escherichia coli; 25 ppm in feed for 5 days): 1.86 Logarithmic number of collected cells per 1 g of tissue | Escherichia coli collected in Trachea (Escherichia coli; 25 ppm in feed for 5 days): 4.58 Logarithmic number of collected cells per 1 g of tissue | Chickens developing disease in air sac (naked eye observation) (Escherichia coli; 25 ppm in feed for 5 days): 3 | No. of dead chickens (Escherichia coli; 25 ppm in feed for 5 days): 1 | Escherichia coli collected in Air sac (Escherichia coli; 50 ppm in feed for 5 days): 0 Logarithmic number of collected cells per 1 g of tissue | Escherichia coli collected in Lung (Escherichia coli; 50 ppm in feed for 5 days): 0 Logarithmic number of collected cells per 1 g of tissue | Escherichia coli collected in Trachea (Escherichia coli; 50 ppm in feed for 5 days): 0 Logarithmic number of collected cells per 1 g of tissue | Chickens developing disease in air sac (naked eye observation) (Escherichia coli; 50 ppm in feed for 5 days): 2 | No. of dead chickens (Escherichia coli; 50 ppm in feed for 5 days): 1 | Mycoplasma gallisepticum collected in Air sac (Mycoplasma gallisepticum; 50 ppm in feed for 5 days): 3.70 Logarithmic number of collected cells per 1 g of tissue | Mycoplasma gallisepticum collected in Infraorbital sinus (Mycoplasma gallisepticum; 50 ppm in feed for 5 days): 1/5 | Mycoplasma gallisepticum collected in Lung (Mycoplasma gallisepticum; 50 ppm in feed for 5 days): 4.78 Logarithmic number of collected cells per 1 g of tissue | Mycoplasma gallisepticum collected in Trachea (Mycoplasma gallisepticum; 50 ppm in feed for 5 days): 3.64 Logarithmic number of collected cells per 1 g of tissue | Chickens developing disease in air sac (naked eye observation) (Mycoplasma gallisepticum; 50 ppm in feed for 5 days): 1 | No. of dead chickens (Mycoplasma gallisepticum; 50 ppm in feed for 5 days): 0 | Mycoplasma gallisepticum collected in Air sac (Mycoplasma gallisepticum; 75 ppm in feed for 5 days): 0 Logarithmic number of collected cells per 1 g of tissue | Mycoplasma gallisepticum collected in Infraorbital sinus (Mycoplasma gallisepticum; 75 ppm in feed for 5 days): 0/5 | Mycoplasma gallisepticum collected in Lung (Mycoplasma gallisepticum; 75 ppm in feed for 5 days): 4.00 Logarithmic number of collected cells per 1 g of tissue | Mycoplasma gallisepticum collected in Trachea (Mycoplasma gallisepticum; 75 ppm in feed for 5 days): 3.82 Logarithmic number of collected cells per 1 g of tissue | Chickens developing disease in air sac (naked eye observation) (Mycoplasma gallisepticum; 75 ppm in feed for 5 days): 0 | No. of dead chickens (Mycoplasma gallisepticum; 75 ppm in feed for 5 days): 0 | Mycoplasma gallisepticum collected in Air sac (Mycoplasma gallisepticum; 100 ppm in feed for 5 days): 0 Logarithmic number of collected cells per 1 g of tissue | Mycoplasma gallisepticum collected in Infraorbital sinus (Mycoplasma gallisepticum; 100 ppm in feed for 5 days): 0/5 | Mycoplasma gallisepticum collected in Lung (Mycoplasma gallisepticum; 100 ppm in feed for 5 days): 0 Logarithmic number of collected cells per 1 g of tissue | Mycoplasma gallisepticum collected in Trachea (Mycoplasma gallisepticum; 100 ppm in feed for 5 days): 0 Logarithmic number of collected cells per 1 g of tissue | Chickens developing disease in air sac (naked eye observation) (Mycoplasma gallisepticum; 100 ppm in feed for 5 days): 0 | No. of dead chickens (Mycoplasma gallisepticum; 100 ppm in feed for 5 days): 0
